Source: patent publication US9284283B2, “Macrocyclic compounds for modulating IL-17” (ENSEMBLE THERAPEUTICS CORPORATION, priority 2012, dated 2016)

How the values were obtained:
IL17A = molecular target: T1, IL17A (Homo sapiens, UniProt Q16552); assay: Surface Plasmon Resonance (SPR) analysis of compound interactions with IL17A; details: SPR binding to IL17A
T1 sequence (Q16552 24-155): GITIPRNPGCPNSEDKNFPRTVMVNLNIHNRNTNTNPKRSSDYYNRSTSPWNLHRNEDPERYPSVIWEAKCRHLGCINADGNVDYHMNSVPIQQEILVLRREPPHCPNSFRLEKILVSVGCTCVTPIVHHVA
Procedure: SPR analysis was carried out with a GE Healthcare (Piscataway, N.J.) Biacore X100 system. Typically, the chip (NTA Biacore Biosensor chip; GE Healthcare BR-1000-34) was first conditioned by injection of 0.35 M EDTA, which also served to remove any immobilized proteins from previous runs. Before immobilization of the recombinant 6-His-tagged IL17, the chip was washed with 0.5 mM nickel chloride in NTA buffer (10 mM HEPES buffer, 0.15 M sodium chloride, 10 μM ethylene diamine tetraacetic acid, 0.005% v/v surfactant P20 (GE Healthcare BR-1000-54)) to form a nickel chelate on the chip. IL17 protein was immobilized onto a NTA chip through its 6-His tag. IL17A was typically injected at 0.25 μM for 60-120 seconds, followed by a stabilization step washing with NTA+0.5% DMSO for 120 seconds or longer.
Five 2-fold or 3-fold serial dilutions of test compound were injected serially onto the chip. All steps were conducted using NTA buffer containing 0.5% v/v dimethylsulfoxide (DMSO). Compounds were diluted from stock solutions of 10 mM concentration in 100% DMSO with NTA buffer to obtain 50 μM solutions in NTA+0.5% DMSO. Subsequent 2× or 3× dilutions were made in NTA+0.5% DMSO. Compound was generally injected for 180 seconds followed by washing the chip in buffer alone for 120 seconds. The rate of refractive index change (RU units/time) and the maximum extend of RU change was measured during the “on” phase of analyte injection, followed by measuring the rate during the “off” phase.
Kinetic parameter fits were conducted using the Biacore SPR Evaluation Program (GE Healthcare) for 1:1 molecular binding fits, after subtracting the baseline average of 2 or more runs in which no analyte was injected. This program then reports the best fit average for the “on” rate (Ka), the “off” rate (Kd) and the dissociation constant (KD) (Chaiken, I et al., Anal Biochem 201, 197-210 (1992)). A separate program in the Biacore SPR Evaluation Program then calculates the best fit for Kd based upon the extent of binding alone (RU units bound) at each concentration of analyte and reports the best fit Kd by best fit to a Lineweaver-Burke plot. Typically, the Kd value calculated through both means agreed within a factor of three.
The presence and activity of IL17 on the NTA chip was routinely confirmed three ways: • 1) An increase in response units (RU) upon immobilization confirms that the IL17 was immobilized on the chip; • 2) Anti-IL17 was also injected on the chip to confirm the presence of IL17; and • 3) IL17R was injected onto the chip to confirm that the immobilized IL17 retained its binding activity for its receptor. Negative controls to access specificity for compound binding were conducted by immobilizing unrelated, but his-tagged, proteins (such as cyclophilin D) and conducting the same analysis as done with IL17A.

[1] = molecular target: T2, biotinylated human IL-17 (binding to IL17R/Fc) (Homo sapiens, UniProt Q16552); assay: IL-17 competition ELISA II (captured IL17R/Fc, biotinylated IL-17)
T2 construct: purchased R&D Systems 317-ILB (IL-17, biotinylated); 177-IR (IL17R/Fc)
T2 sequence (Q16552 20-155 limits assumed): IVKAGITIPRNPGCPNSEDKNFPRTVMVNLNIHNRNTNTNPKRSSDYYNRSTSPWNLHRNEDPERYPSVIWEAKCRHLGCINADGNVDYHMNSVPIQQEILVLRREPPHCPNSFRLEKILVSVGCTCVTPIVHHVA
In short: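 Competition read-out: absorbance at 450 nm after streptavidin-HRP/TMB detection, fitted to a 4-parameter logistic model bounded by no-competitor and blank wells to give IC50. Compound was serially diluted 5-fold from 1 μM alongside 20 nM (stock) biotinylated IL-17 on IL17R/Fc (10 nM) captured via goat anti-human IgG, 30 min at room temperature.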

[2] = tested on: IL-17A induced secretion of IL-6 in primary human RASF cells; assay: Inhibition of IL17A induced secretion of IL6 in human rheumatoid arthritis synovial fibroblast (RASF) cells; format: cell-based; details: Homo sapiens, Fibroblast
In short: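 Primary RASF cells (passage 2-8) stimulated 20 h at 37 °C with rhIL-17A (30 ng/mL) pre-incubated 1 h with compound (final 0.03-25 μM, 0.25% DMSO). Supernatant IL-6 measured by ELISA, normalized to WST1 viability; triplicates.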

[3] = molecular target: T3, recombinant human IL17a (binding to its receptor IL17R) (Homo sapiens, UniProt Q16552); assay: IL-17 competition ELISA I (IL17a coated, IL17R/Fc binding)
T3 construct: purchased R&D Systems 317-ILB (IL17a); 177-IR (IL17R/Fc)
T3 sequence (Q16552 20-155 limits assumed): T2 sequence (Q16552 20-155 limits assumed)
In short: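 Plates coated with 20 nM recombinant human IL17a received compound dilutions and 12 nM IL17R/Fc (final) for 30 min at room temperature. Bound receptor was detected with HRP anti-human Fc and TMB, read at 450 nm. IC50 came from a 4-parameter logistic fit between no-competitor and blank controls.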

Structure (SMILES) | Kd (IL17A) | IC50 [1] | IC50 [3] | IC50 [2]
COC(=O)[C@@H]1CCCCNC(=O)CCCNC(=O)[C@@H](Cc2ccc(NC(=O)[C@H](Cc3ccccc3)NC(=O)c3ccccc3)cc2)NC(=O)CC2(CCCC2)CC(=O)N1 [Compound 115] | 100 to 1000 nM | – | – | –
CC(=O)N[C@@H](Cc1ccccc1Cl)C(=O)Nc1ccc(C[C@H]2NC(=O)CC3(CCCC3)CC(=O)NCCCNC(=O)CNC2=O)cc1 [Compound 152] | 100 to 1000 nM | – | – | –
COC(=O)[C@@H]1CCCCNC(=O)CCCNC(=O)[C@@H](Cc2ccc(NC(=O)[C@H](Cc3ccccc3Br)NC(=O)c3ccccc3)cc2)NC(=O)CC2(CCCC2)CC(=O)N1 [Compound 121] | 100 to 1000 nM | – | – | –
COC(=O)[C@@H]1CCCCNC(=O)CCCNC(=O)[C@@H](Cc2ccc(NC(=O)[C@H](Cc3ccccc3C)NC(=O)Cc3ccccc3)cc2)NC(=O)CC2(CCCC2)CC(=O)N1 [Compound 126] | 100 to 1000 nM | – | – | –
COC(=O)[C@H]1CCCCNC(=O)CCCNC(=O)[C@@H](Cc2ccc(NC(=O)[C@H](Cc3ccccc3)NC(=O)c3ccccc3)cc2)NC(=O)CC2(CCCC2)CC(=O)N1 [Compound 139] | 100 to 1000 nM | – | – | –
O=C1CNC(=O)[C@@H](Cc2ccc(NC(=O)[C@H](Cc3ccccc3Cl)NC(=O)Cc3ccc(CO)cc3)cc2)NC(=O)CC2(CCCC2)CC(=O)NCCCCCN1 [Compound 218] | – | < 100 nM | < 100 nM | < 100 nM
CC(=O)N[C@@H](Cc1ccccc1Cl)C(=O)Nc1ccc(C[C@H]2NC(=O)CC3(CCCC3)CC(=O)N[C@H](C(=O)O)CCCCNC(=O)CNC2=O)cc1 [Compound 264] | – | < 100 nM | < 100 nM | 100 to 1000 nM
C[C@H]1NC(=O)[C@@H](Cc2ccc(NC(=O)[C@H](Cc3ccccc3Cl)NC(=O)Cc3ccccc3)cc2)NC(=O)CC2(CCCC2)CC(=O)N[C@H](C(=O)O)CCCCNC1=O [Compound 367] | – | < 100 nM | < 100 nM | < 100 nM
CNC(=O)N[C@@H](Cc1ccccc1Cl)C(=O)Nc1ccc(C[C@H]2NC(=O)CC3(CCCC3)CC(=O)NCCCCCNC(=O)CNC2=O)cc1 [Compound 273] | – | < 100 nM | 100 to 1000 nM | 1000 to 10000 nM
O=C1CC2(CCCC2)CC(=O)N[C@H](Cc2ccc(NC(=O)[C@H](Cc3ccccc3Cl)NC(=O)Cc3ccccc3)cc2)C(=O)NCC(=O)N[C@H](C(=O)O)CCCCN1 [Compound 339] | – | < 100 nM | < 100 nM | 100 to 1000 nM
C[C@H]1NC(=O)[C@@H](Cc2ccc(NC(=O)[C@@H](NC(=O)Cc3ccccc3)C3CCCCC3)cc2)NC(=O)CC2(CCCC2)CC(=O)N[C@H](C(=O)O)CCCCNC1=O [Compound 369] | – | < 100 nM | < 100 nM | < 100 nM
CN(C)C(=O)N[C@@H](Cc1ccccc1Cl)C(=O)Nc1ccc(C[C@H]2NC(=O)CC3(CCCC3)CC(=O)NCCCCCNC(=O)CNC2=O)cc1 [Compound 274] | – | < 100 nM | < 100 nM | 100 to 1000 nM
O=C1CNC(=O)[C@@H](Cc2ccc(NC(=O)[C@H](CC3CCC3)NC(=O)Cc3ccccc3)cc2)NC(=O)CC2(CCCC2)CC(=O)NCCCCCN1 [Compound 246] | – | < 100 nM | < 100 nM | > 10000 nM
O=C1CNC(=O)[C@@H](Cc2ccc(NC(=O)[C@@H](NC(=O)Cc3ccccc3)C3CCCCC3)cc2)NC(=O)CC2(CCCC2)CC(=O)N[C@H](C(=O)O)CCCCN1 [Compound 316] | – | < 100 nM | < 100 nM | 100 to 1000 nM
O=C1CNC(=O)[C@@H](Cc2ccc(NC(=O)[C@H](Cc3ccccc3Cl)NC(=O)c3cccnc3)cc2)NC(=O)CC2(CCCC2)CC(=O)N[C@H](C(=O)O)CCCCN1 [Compound 266] | – | < 100 nM | < 100 nM | 100 to 1000 nM

The next lines start with results.

Kd (IL17A) | IC50 [1] | IC50 [3] | Structure (SMILES) | IC50 [2]
– | < 100 nM | < 100 nM | C[C@H]1NC(=O)[C@@H](Cc2ccc(NC(=O)[C@H](Cc3ccccc3Cl)NC(=O)Cc3ccccc3)cc2)NC(=O)CC2(CCCC2)CC(=O)NCCCCCNC1=O [Compound 288] | < 100 nM
– | < 100 nM | < 100 nM | NC(=O)CC[C@H]1NC(=O)[C@@H](Cc2ccc(NC(=O)[C@H](Cc3ccccc3Cl)NC(=O)Cc3ccccc3)cc2)NC(=O)CC2(CCCC2)CC(=O)NCCCCCNC1=O [Compound 341] | < 100 nM
– | < 100 nM | 100 to 1000 nM | O=C1CNC(=O)[C@@H](Cc2ccc(NC(=O)[C@H](Cc3ccccc3Cl)NC(=O)Cc3ccccc3)cc2)NC(=O)CC2(CCCC2)CC(=O)NCCNCCN1 [Compound 338] | > 10000 nM
– | < 100 nM | < 100 nM | O=C1CNC(=O)[C@@H](Cc2ccc(NC(=O)[C@H](Cc3ccccc3Cl)NC(=O)NCc3ccccc3)cc2)NC(=O)CC2(CCCC2)CC(=O)NCCCCCN1 [Compound 302] | 100 to 1000 nM
– | < 100 nM | 100 to 1000 nM | C[C@H]1NC(=O)[C@@H](Cc2ccc(NC(=O)[C@H](Cc3ccccc3Cl)NC(=O)c3cccnc3)cc2)NC(=O)CC2(CCCC2)CC(=O)NCCCCCNC1=O [Compound 353] | 1000 to 10000 nM
– | < 100 nM | 100 to 1000 nM | C[C@H]1NC(=O)[C@@H](Cc2ccc(NC(=O)[C@H](Cc3ccccc3Cl)NC(=O)c3cccnc3)cc2)NC(=O)CC2(CCCC2)CC(=O)N[C@H](C(=O)O)CCCCNC1=O [Compound 368] | 100 to 1000 nM
– | < 100 nM | < 100 nM | O=C1CC2(CCCC2)CC(=O)N[C@H](Cc2ccc(NC(=O)[C@H](Cc3ccccc3Cl)NC(=O)Cc3ccccc3)cc2)C(=O)N[C@H](CO)C(=O)NCCCCCN1 [Compound 340] | 100 to 1000 nM
– | < 100 nM | 100 to 1000 nM | O=C1CC2(CCCC2)CC(=O)N[C@H](Cc2ccc(NC(=O)[C@@H](NC(=O)Cc3ccc(CO)cc3)C3CCCCC3)cc2)C(=O)N[C@H](Cc2ccccc2)C(=O)NCCCCCN1 [Compound 336] | 100 to 1000 nM
– | < 100 nM | 100 to 1000 nM | O=C1CNC(=O)[C@@H](Cc2ccc(NC(=O)[C@@H](NC(=O)Cc3cccc(O)c3)C3CCCCC3)cc2)NC(=O)CC2(CCCC2)CC(=O)NCCCCCN1 [Compound 378] | 100 to 1000 nM
– | < 100 nM | < 100 nM | O=C1CNC(=O)[C@@H](Cc2ccc(NC(=O)[C@H](Cc3ccccc3Cl)NC(=O)Cc3ccc(F)cc3)cc2)NC(=O)CC2(CCCC2)CC(=O)NCCCCCN1 [Compound 305] | 100 to 1000 nM
– | < 100 nM | 100 to 1000 nM | CN1CCCCCNC(=O)CNC(=O)[C@@H](Cc2ccc(NC(=O)[C@@H](NC(=O)Cc3ccccc3)C3CCCCC3)cc2)NC(=O)CC2(CCCC2)CC1=O [Compound 332] | 1000 to 10000 nM
– | < 100 nM | 100 to 1000 nM | C[C@H]1NC(=O)[C@@H](Cc2ccc(NC(=O)[C@@H](NC(=O)Cc3ccccc3)C3CCCCC3)cc2)NC(=O)CC2(CCCC2)CC(=O)NCCCCCNC1=O [Compound 342] | 100 to 1000 nM
– | < 100 nM | 100 to 1000 nM | O=C1CNC(=O)[C@@H](Cc2ccc(NC(=O)[C@H](CC3CCCCC3)NC(=O)Cc3ccccc3)cc2)NC(=O)CC2(CCCC2)CC(=O)NCCCCCN1 [Compound 293] | 1000 to 10000 nM
